{"source": "patent US8952024B2", "about": "“Herbicidal pyrimidone derivatives” (E I du Pont de Nemours and Company, priority 2009, dated 2015)", "assay_type_in_all_cases": "in vivo", "key": {"[1]": {"system": "umbrella sedge (Cyperus difformis)", "experiment": "Test B flooded paddy test", "method_in_brief": "(§1)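 Flooded-pot test: water raised to 3 cm above soil when treating, compound put in the water, level unchanged thereafter. Plants were at 2 leaves. Readout after 13 to 15 days, visual, relative to controls; 0 signifies no effect and 100 complete control.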"}, "[2]": {"system": "rice (Oryza sativa)", "experiment": "Test B flooded paddy test", "method_in_brief": "as §1"}, "[3]": {"system": "barnyardgrass (Echinochloa crus-galli)", "experiment": "Test B flooded paddy test", "method_in_brief": "as §1"}, "[4]": {"system": "ducksalad (Heteranthera limosa)", "experiment": "Test B flooded paddy test", "method_in_brief": "as §1"}, "[5]": {"system": "galium (catchweed bedstraw, Galium aparine)", "experiment": "Test B pre-/postemergence plant response", "settings": "Preemergence", "method_in_brief": "(§2)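 Visually scored on a 0 to 100 scale after 13 to 15 days in greenhouse versus controls. Treatments were preemergence on seeded loam/sand soil and postemergence on 1- to 4-leaf plants.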"}, "[6]": {"system": "ragweed (common ragweed, Ambrosia elatior)", "experiment": "Test B pre-/postemergence plant response", "method_in_brief": "as §2"}, "[7]": {"system": "nightshade (eastern black nightshade, Solanum ptycanthum)", "experiment": "Test B pre-/postemergence plant response", "settings": "Preemergence", "method_in_brief": "as §2"}, "[8]": {"system": "sunflower (common oilseed sunflower, Helianthus annuus)", "experiment": "Test B pre-/postemergence plant response", "settings": "Preemergence", "method_in_brief": "as §2"}, "[9]": {"system": "Italian ryegrass (Lolium multiflorum)", "experiment": "Test B pre-/postemergence plant response", "method_in_brief": "as §2"}, "[10]": {"system": "giant foxtail (Setaria faberii)", "experiment": "Test B pre-/postemergence plant response", "method_in_brief": "as §2"}, "[11]": {"system": "chickweed (Stellaria media)", "experiment": "Test B postemergence plant response", "settings": "Postemergence", "method_in_brief": "(§3)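 Plants at the 1- to 4-leaf stage (2 to 18 cm tall), grown in pots of peat moss/vermiculite medium with wetting agent and starter nutrients, received postemergence applications of test chemicals. After 13 to 15 days in a greenhouse, injury was rated visually against untreated controls on a 0 (no effect) to 100 (complete control) scale.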"}, "[12]": {"system": "canarygrass (Phalaris minor)", "experiment": "Test B postemergence plant response", "settings": "Postemergence", "method_in_brief": "as §3"}, "[13]": {"system": "windgrass (Apera spica-venti)", "experiment": "Test B postemergence plant response", "settings": "Postemergence", "method_in_brief": "as §3"}, "[14]": {"system": "winter barley (Hordeum vulgare)", "experiment": "Test B postemergence plant response", "settings": "Postemergence", "method_in_brief": "as §3"}, "[15]": {"system": "goosegrass (Eleusine indica)", "experiment": "Test B pre-/postemergence plant response", "settings": "Preemergence, 62 g ai/ha; scale 0 to 100, 0 no effect, 100 complete control"}, "[16]": {"settings": "250 g ai/ha, flooded paddy test, visual rating on 0 to 100 scale (0 no effect, 100 complete control) after 13 to 15 days"}, "[17]": {"settings": "Flood (flooded paddy test), 62 g ai/ha, scale 0 to 100, 0 is no effect, 100 is complete control, 13 to 15 days"}, "[18]": {"settings": "31 g ai/ha, scale 0 to 100 (0 no effect, 100 complete control)"}, "[19]": {"settings": "62 g ai/ha, scale 0 to 100, 0 no effect, 100 complete control"}, "[20]": {"settings": "250 g ai/ha, Preemergence, 0 to 100 scale"}, "[21]": {"settings": "Postemergence, 31 g ai/ha, scale 0 to 100 (0 no effect, 100 complete control)"}, "[22]": {"settings": "Postemergence, 62 g ai/ha, scale 0 (no effect) to 100 (complete control), 13 to 15 days"}, "[23]": {"settings": "Postemergence, 125 g ai/ha, visual rating after 13 to 15 days, scale 0 (no effect) to 100 (complete control)"}, "[24]": {"settings": "Postemergence, 250 g ai/ha, scale 0 to 100"}, "[25]": {"settings": "Preemergence, 31 g ai/ha, scale 0 to 100 (0 no effect, 100 complete control)"}, "[26]": {"settings": "Preemergence, 62 g ai/ha, scale 0 to 100, 0 no effect, 100 complete control"}, "[27]": {"settings": "Preemergence, 125 g ai/ha, 0 to 100 scale"}, "[28]": {"settings": "62 g ai/ha, scale 0 (no effect) to 100 (complete control), 13 to 15 days"}, "[29]": {"settings": "125 g ai/ha, visual rating after 13 to 15 days, scale 0 (no effect) to 100 (complete control)"}}}
{"smiles": "O=C1CCCC(O)=C1C(=O)c1cnc(-c2ccccc2)n(-c2ccc(F)cc2)c1=O", "note": "[Compound 24]", "values": [{"measurement": "Plant response rating, Flood, Sedge, Umbrella", "setting": "[1]; [16]", "result": 75}, {"measurement": "Plant response rating, Sedge, Umbrella", "setting": "[1]; [17]", "result": 0}, {"measurement": "Plant response rating, Flood, Rice", "setting": "[2]; [16]", "result": 0}, {"measurement": "Plant response rating, Rice", "setting": "[2]; [17]", "result": 0}, {"measurement": "Plant response rating, Flood, Barnyardgrass", "setting": "[3]; [16]", "result": 20}, {"measurement": "Plant response rating, Barnyardgrass", "setting": "[3]; [17]", "result": 0}, {"measurement": "Plant response rating, Flood, Ducksalad", "setting": "[4]; [16]", "result": 75}, {"measurement": "Plant response rating, Ducksalad", "setting": "[4]; [17]", "result": 20}, {"measurement": "Plant response rating, Galium", "setting": "[5]; 250 g ai/ha, 0 to 100 scale", "result": 80}, {"measurement": "Plant response rating, Galium", "setting": "[5]; [18]", "result": 0}, {"measurement": "Plant response rating, Galium", "setting": "[5]; [19]", "result": 0}, {"measurement": "Galium plant response rating", "setting": "[5]; 125 g ai/ha, 0 to 100 scale", "result": 10}, {"measurement": "Plant response rating, Ragweed", "setting": "[6]; [20]", "result": 100}, {"measurement": "Plant response rating, Ragweed", "setting": "[6]; [21]", "result": 70}, {"measurement": "Plant response rating, Ragweed", "setting": "[6]; [22]", "result": 80}, {"measurement": "Plant response rating, Ragweed", "setting": "[6]; [23]", "result": 90}, {"measurement": "Ragweed plant response rating", "setting": "[6]; [24]", "result": 98}, {"measurement": "Plant response rating, Ragweed", "setting": "[6]; [25]", "result": 85}, {"measurement": "Plant response rating, Ragweed", "setting": "[6]; [26]", "result": 90}, {"measurement": "Ragweed plant response rating", "setting": "[6]; [27]", "result": 98}, {"measurement": "Plant response rating, Nightshade", "setting": "[7]; 250 g ai/ha, 0 to 100 scale", "result": 100}, {"measurement": "Plant response rating, Nightshade", "setting": "[7]; [18]", "result": 90}, {"measurement": "Plant response rating, Nightshade", "setting": "[7]; [19]", "result": 98}, {"measurement": "Nightshade plant response rating", "setting": "[7]; 125 g ai/ha, 0 to 100 scale", "result": 100}, {"measurement": "Plant response rating, Sunflower", "setting": "[8]; 250 g ai/ha, 0 to 100 scale", "result": 98}, {"measurement": "Plant response rating, Sunflower", "setting": "[8]; [18]", "result": 85}, {"measurement": "Plant response rating, Sunflower", "setting": "[8]; [19]", "result": 90}, {"measurement": "Sunflower plant response rating", "setting": "[8]; 125 g ai/ha, 0 to 100 scale", "result": 95}, {"measurement": "Plant response rating, Ryegrass, Italian", "setting": "[9]; [20]", "result": 10}, {"measurement": "Plant response rating, Ryegrass, Italian", "setting": "[9]; [21]", "result": 0}, {"measurement": "Plant response rating, Ryegrass, Italian", "setting": "[9]; [22]", "result": 5}, {"measurement": "Plant response rating, Ryegrass, Italian", "setting": "[9]; [23]", "result": 40}, {"measurement": "Ryegrass, Italian plant response rating", "setting": "[9]; [24]", "result": 50}, {"measurement": "Plant response rating, Ryegrass, Italian", "setting": "[9]; [25]", "result": 0}, {"measurement": "Plant response rating, Ryegrass, Italian", "setting": "[9]; [26]", "result": 0}, {"measurement": "Ryegrass, Italian plant response rating", "setting": "[9]; [27]", "result": 10}, {"measurement": "Plant response rating, Foxtail, Giant", "setting": "[10]; [20]", "result": 100}, {"measurement": "Plant response rating, Foxtail, Giant", "setting": "[10]; [21]", "result": 70}, {"measurement": "Plant response rating, Foxtail, Giant", "setting": "[10]; [22]", "result": 85}, {"measurement": "Plant response rating, Foxtail, Giant", "setting": "[10]; [23]", "result": 90}, {"measurement": "Foxtail, Giant plant response rating", "setting": "[10]; [24]", "result": 95}, {"measurement": "Plant response rating, Foxtail, Giant", "setting": "[10]; [25]", "result": 30}, {"measurement": "Plant response rating, Foxtail, Giant", "setting": "[10]; [26]", "result": 85}, {"measurement": "Foxtail, Giant plant response rating", "setting": "[10]; [27]", "result": 90}, {"measurement": "Plant response rating, Chickweed", "setting": "[11]; [18]", "result": 80}, {"measurement": "Plant response rating, Chickweed", "setting": "[11]; [28]", "result": 90}, {"measurement": "Plant response rating, Chickweed", "setting": "[11]; [29]", "result": 95}, {"measurement": "Chickweed plant response rating", "setting": "[11]; 250 g ai/ha, scale 0 to 100", "result": 100}, {"measurement": "Plant response rating, Canarygrass", "setting": "[12]; [18]", "result": 40}, {"measurement": "Plant response rating, Canarygrass", "setting": "[12]; [28]", "result": 40}, {"measurement": "Canarygrass plant response rating", "setting": "[12]; 250 g ai/ha, scale 0 to 100", "result": 60}, {"measurement": "Plant response rating, Windgrass", "setting": "[13]; [18]", "result": 20}, {"measurement": "Plant response rating, Windgrass", "setting": "[13]; [28]", "result": 30}, {"measurement": "Plant response rating, Windgrass", "setting": "[13]; [29]", "result": 60}, {"measurement": "Windgrass plant response rating", "setting": "[13]; 250 g ai/ha, scale 0 to 100", "result": 80}, {"measurement": "Plant response rating, Barley", "setting": "[14]; [18]", "result": 0}, {"measurement": "Plant response rating, Barley", "setting": "[14]; [28]", "result": 5}, {"measurement": "Plant response rating, Barley", "setting": "[14]; 125 g ai/ha, scale 0 to 100 (0 no effect, 100 complete control), 13 to 15 days", "result": 50}, {"measurement": "Barley plant response rating", "setting": "[14]; 250 g ai/ha, scale 0 to 100", "result": 70}, {"measurement": "Plant response rating, Goosegrass", "setting": "[15]", "result": 98}]}
